Measured values: patent US9447051B2, “Diaminopyrimidines and uses thereof” (AbbVie inc., priority 2012, dated 2016)

System: RSV (Group A, Long Strain)
Test: Antiviral (RSV) assay: cytopathetic effect (CPE) protection assay in HEp-2 cells, MTT readout
Type: cell-based, human respiratory syncytial virus (RSV)
Conditions: Table 1, 0.2 MOI RSV, 4 days incubation, protection from CPE
Method: HEp-2 cells and RSV (Group A, Long Strain) were obtained from the American Type Culture Collection (Manassas, Va.). A cytopathetic effect (CPE) protection assay was performed to determine the ability of a compound to protect the cells from viral infection and thus the CPE induced by viral infection. 96-well plates were first seeded with 3×10^3 HEp-2 cells per well in Dulbecco's modified Eagle's medium (DMEM) containing 10% fetal bovine serum (FBS). One day after the cells were seeded, they were preincubated with serial dilutions of compounds prepared in 100 μL assay medium (DMEM mixed with F12 medium at a 1:1 ratio, supplemented with 2% FBS and 1 mM sodium pyruvate) for 1 hour at 37° C. 100 μL of assay medium containing 0.2 multiplicity of infection (MOI) of RSV was then added to each well of cells. In addition to wells containing infected cells incubated with compounds, each plate also contained replicates of two kinds of controls: (1) Virus control contained cells infected with 0.2 MOI of RSV in assay medium, (2) Uninfected cell control contained cells incubated with assay medium only. After 4 days of incubation at 37° C., the viability of cells was assessed using MTT (Thiazolyl blue tetrazolium bromide, Sigma). A stock solution of MTT, at a concentration of 4 mg/mL in phosphate-buffered saline, was added to all wells at 25 μL per well. Plates were further incubated for 4 hours, and each well was then treated with 50 μL of a solution containing 20% sodium dodecyl sulfate (SDS) and 0.02 N HCl. After an overnight incubation, the plates were measured on a BioTek® microtiter plate reader at wavelengths of 570 nm and 650 nm. The MTT detection is based on the fact that viable (uninfected) cells can reduce the tetrazolium salts into colored formazan products, which can then be quantitated by spectrometry. […] Compounds were tested to determine both their antiviral and toxicity to determine their therapeutic window. Determination of the EC50 and TD50 of these active compounds were repeated one additional time to confirm the window.

[1] = human respiratory syncytial virus, HEp-2, 96 h

| SMILES | EC50 [1] [nM] | EC50 [nM] |
| --- | --- | --- |
| COc1cccc(CNc2nc(C)c(C)c(NC3CCCCC3)n2)c1 [Example 25, N^4-cyclohexyl-N^2-(3-methoxybenzyl)-5,6-dimethylpyrimidine-2,4-diamine] | > 3400 | – |
| Cc1nc(NCc2ccc(F)cc2)nc(NC2CCCCC2)c1C [Example 9, N^4-cyclohexyl-N^2-(4-fluorobenzyl)-5,6-dimethylpyrimidine-2,4-diamine] | > 3000 | – |
| Cc1nc(NCc2ccccn2)nc(Nc2cccc(F)c2)c1C [Example 49, N^4-(3-fluorophenyl)-5,6-dimethyl-N^2-(pyridin-2-ylmethyl)pyrimidine-2,4-diamine] | 310 | – |
| Cc1nc(NCc2ccccn2)nc(NC2CCC(C)(O)CC2)c1C (stereo not drawn) [Example 38, trans-4-({5,6-dimethyl-2-[(pyridin-2-ylmethyl)amino]pyrimidin-4-yl}amino)-1-methylcyclohexanol] | – | 2400 |
| COc1ccc(CNc2nc(C)c(C)c(NC3CCCCC3)n2)cc1 [Example 8, N^4-cyclohexyl-N^2-(4-methoxybenzyl)-5,6-dimethylpyrimidine-2,4-diamine] | > 3700 | – |
| Cc1nc(NCc2cccc(F)c2)nc(NC2CCCCC2)c1C [Example 13, N^4-cyclohexyl-N^2-(3-fluorobenzyl)-5,6-dimethylpyrimidine-2,4-diamine] | > 1000 | – |
| Cc1cccc(CNc2nc(C)c(C)c(NC3CCCCC3)n2)n1 [Example 19, N^4-cyclohexyl-5,6-dimethyl-N^2-[(6-methylpyridin-2-yl)methyl]pyrimidine-2,4-diamine] | 590 | – |
| Cc1nc(NCc2ccccn2)nc(NC2CCOCC2)c1C [Example 30, 5,6-dimethyl-N^2-(pyridin-2-ylmethyl)-N^4-(tetrahydro-2H-pyran-4-yl)pyrimidine-2,4-diamine] | 1100 | – |
| Cc1ccc(Nc2nc(NCc3ccccn3)nc(C)c2C)cc1 [Example 63, 5,6-dimethyl-N^4-(4-methylphenyl)-N^2-(pyridin-2-ylmethyl)pyrimidine-2,4-diamine] | 52 | – |
| Cc1nc(NCc2ccccn2)nc(NC2CCCC(F)(F)C2)c1C (stereo not drawn) [Example 80, N^4-(3,3-difluorocyclohexyl)-5,6-dimethyl-N^2-(pyridin-2-ylmethyl)pyrimidine-2,4-diamine] | 190 | – |
| Cc1nc(NCc2ccn[nH]2)nc(NC2CCCCC2)c1C [Example 14, N^4-cyclohexyl-5,6-dimethyl-N^2-(1H-pyrazol-5-ylmethyl)pyrimidine-2,4-diamine] | 840 | – |
| Cc1nc(NCc2ccccn2)nc(NCC2CCCCC2)c1C [Example 92, N^4-(cyclohexylmethyl)-5,6-dimethyl-N^2-(pyridin-2-ylmethyl)pyrimidine-2,4-diamine] | 1100 | – |
| Cc1nc(NCc2ccccn2)nc(NC2CCN(C(=O)OC(C)(C)C)CC2)c1C [Example 82, tert-butyl 4-({5,6-dimethyl-2-[(pyridin-2-ylmethyl)amino]pyrimidin-4-yl}amino)piperidine-1-carboxylate] | 540 | – |
| Cc1cccc(Nc2nc(NCc3ccccn3)nc(C)c2C)c1 [Example 69, 5,6-dimethyl-N^4-(3-methylphenyl)-N^2-(pyridin-2-ylmethyl)pyrimidine-2,4-diamine] | 110 | – |
| Cc1cc(F)c(F)cc1Nc1nc(NCc2ccccn2)nc(C)c1C [Example 73, N^4-(4,5-difluoro-2-methylphenyl)-5,6-dimethyl-N^2-(pyridin-2-ylmethyl)pyrimidine-2,4-diamine] | 24 | – |
| Cc1ccccc1Nc1nc(NCc2ccccn2)nc(C)c1C [Example 67, 5,6-dimethyl-N^4-(2-methylphenyl)-N^2-(pyridin-2-ylmethyl)pyrimidine-2,4-diamine] | 7 | – |
| Cc1nc(NCc2ccccn2)nc(NCC2CCCC2)c1C [Example 44, N^4-(cyclopentylmethyl)-5,6-dimethyl-N^2-(pyridin-2-ylmethyl)pyrimidine-2,4-diamine] | 24000 | – |
| Cc1nc(NCc2ccccn2)nc(Nc2cccnc2)c1C [Example 93, 5,6-dimethyl-N^4-(pyridin-3-yl)-N^2-(pyridin-2-ylmethyl)pyrimidine-2,4-diamine] | 930 | – |
| Cc1nc(NCc2ccccn2)nc(Nc2cccc(Cl)c2)c1C [Example 65, N^4-(3-chlorophenyl)-5,6-dimethyl-N^2-(pyridin-2-ylmethyl)pyrimidine-2,4-diamine] | 40 | – |
| Cc1nc(NCc2ccccn2)nc(Nc2ccc(F)cc2)c1C [Example 50, N^4-(4-fluorophenyl)-5,6-dimethyl-N^2-(pyridin-2-ylmethyl)pyrimidine-2,4-diamine] | 100 | – |

| SMILES | EC50 [1] [nM] | EC50 [nM] |
| --- | --- | --- |
| Cc1nc(NCc2ccccn2)nc(NC2CC3CCC2C3)c1C (stereo not drawn) [Example 39, N^4-(bicyclo[2.2.1]hept-2-yl)-5,6-dimethyl-N^2-(pyridin-2-ylmethyl)pyrimidine-2,4-diamine] | 1250 | – |
| Cc1nc(NCc2ccccn2)nc(NC2CCCC(O)C2)c1C (stereo not drawn) [Example 85, 3-({5,6-dimethyl-2-[(pyridin-2-ylmethyl)amino]pyrimidin-4-yl}amino)cyclohexanol] | 1380 | – |
| Cc1nc(NCc2cccs2)nc(NC2CCCCC2)c1C [Example 22, N^4-cyclohexyl-5,6-dimethyl-N^2-(2-thienylmethyl)pyrimidine-2,4-diamine] | 69 | – |
| Cc1nc(NCc2ccccn2)nc(Nc2cc(F)ccc2F)c1C [Example 60, N^4-(2,5-difluorophenyl)-5,6-dimethyl-N^2-(pyridin-2-ylmethyl)pyrimidine-2,4-diamine] | 100 | – |
| CCc1c(C)nc(NCc2ccccn2)nc1Nc1ccc(F)cc1 [Example 89, 5-ethyl-N^4-(4-fluorophenyl)-6-methyl-N^2-(pyridin-2-ylmethyl)pyrimidine-2,4-diamine] | 480 | – |
| Cc1nc(NCc2ccccn2)nc(Nc2ccc(Cl)cc2)c1C [Example 62, N^4-(4-chlorophenyl)-5,6-dimethyl-N^2-(pyridin-2-ylmethyl)pyrimidine-2,4-diamine] | 94 | – |
| Cc1cccc(C)c1Nc1nc(NCc2ccccn2)nc(C)c1C [Example 68, N^4-(2,6-dimethylphenyl)-5,6-dimethyl-N^2-(pyridin-2-ylmethyl)pyrimidine-2,4-diamine] | 9 | – |
| Cc1nc(NCc2ccccn2)nc(Nc2ccccc2OC(F)(F)F)c1C [Example 59, 5,6-dimethyl-N^2-(pyridin-2-ylmethyl)-N^4-[2-(trifluoromethoxy)phenyl]pyrimidine-2,4-diamine] | 30 | – |
| Cc1nc(NCc2ccccn2)nc(Nc2c(F)cccc2F)c1C [Example 55, N^4-(2,6-difluorophenyl)-5,6-dimethyl-N^2-(pyridin-2-ylmethyl)pyrimidine-2,4-diamine] | 140 | – |
| Cc1nc(NCc2cn(C)cn2)nc(NC2CCCCC2)c1C [Example 24, N^4-cyclohexyl-5,6-dimethyl-N^2-[(1-methyl-1H-imidazol-4-yl)methyl]pyrimidine-2,4-diamine] | 45 | – |
| Cc1nc(NCc2ccccn2)nc(NC2CCC2)c1C [Example 47, N^4-cyclobutyl-5,6-dimethyl-N^2-(pyridin-2-ylmethyl)pyrimidine-2,4-diamine] | > 5300 | – |
| CCc1ccnc(CNc2nc(C)c(C)c(NC3CCC(F)(F)CC3)n2)c1 [Example 90, N^4-(4,4-difluorocyclohexyl)-N^2-[(4-ethylpyridin-2-yl)methyl]-5,6-dimethylpyrimidine-2,4-diamine] | 510 | – |
| Cc1cccnc1CNc1nc(C)c(C)c(NC2CCCCC2)n1 [Example 26, N^4-cyclohexyl-5,6-dimethyl-N^2-[(3-methylpyridin-2-yl)methyl]pyrimidine-2,4-diamine] | > 5800 | – |
| Cc1nc(NCc2ccccn2)nc(Nc2ccccc2)c1C [Example 52, 5,6-dimethyl-N^4-phenyl-N^2-(pyridin-2-ylmethyl)pyrimidine-2,4-diamine] | 270 | – |
| Cc1nc(NCc2ccc(OC(F)(F)F)cc2)nc(NC2CCCCC2)c1C [Example 10, N^4-cyclohexyl-5,6-dimethyl-N^2-[4-(trifluoromethoxy)benzyl]pyrimidine-2,4-diamine] | > 1500 | – |
| Cc1nc(NCc2ccccn2)nc(NCC2CCCO2)c1C (stereo not drawn) [Example 91, 5,6-dimethyl-N^2-(pyridin-2-ylmethyl)-N^4-(tetrahydrofuran-2-ylmethyl)pyrimidine-2,4-diamine] | 2200 | – |
| Cc1nc(NCc2ccccn2)nc(NC2CCCC(C)C2C)c1C (stereo not drawn) [Example 41, N^4-(2,3-dimethylcyclohexyl)-5,6-dimethyl-N^2-(pyridin-2-ylmethyl)pyrimidine-2,4-diamine] | 40 | – |
| Cc1nc(NCc2ccccn2)nc(Nc2ccnn2C)c1C [Example 74, 5,6-dimethyl-N^4-(1-methyl-1H-pyrazol-5-yl)-N^2-(pyridin-2-ylmethyl)pyrimidine-2,4-diamine] | 650 | – |
| CCC(CC)Nc1nc(NCc2ccccn2)nc(C)c1C [Example 48, 5,6-dimethyl-N^4-(pentan-3-yl)-N^2-(pyridin-2-ylmethyl)pyrimidine-2,4-diamine] | 270 | – |
